According to patent US8987285B2, “Pharmaceutical compositions, dosage forms and new forms of the compound of formula (I), and methods of use thereof” (Portola Pharmaceuticals, Inc., priority 2010, dated 2015):

Legend:
[1] = cited from earlier work
[2] = Surface tension by Kibron Delta-8 tensiometer (microtensiometry); details: for Surface Active: 24.1 ° C.

Row | Compound | pKa(s) B = Base [1] | pKa(s) A = acid [1] | LogP [1] | other results
1 | CN(C)CCC=C1c2ccccc2CCc2ccccc21 [Amitriptyline] | B 9.3 | – | – | –
2 | Oc1cccc2ccccc12 [Form 1-naphthol, 1-naphthol] | – | A 9.175 | – | –
3 | CNCCCC12CCC(c3ccccc31)c1ccccc12 [Maprotiline] | B 10.33 | – | 4.85 | –
4 | C=CCc1ccccc1OCC(O)CNC(C)C (stereo not drawn) [Alprenolol] | B 9.477 | – | – | –
5 | O=C1CN(/N=C/c2ccc([N+](=O)[O-])o2)C(=O)N1 [Nitrofurantoin] | – | A 7.05 | −0.54 | –
6 | CCn1cc(C(=O)O)c(=O)c2cc(F)c(N3CCNCC3)cc21 [Norfloxacin] | 8.575 | A 6.324 B | −1.03 | –
7 | CC(C(=O)O)c1ccc(-c2ccccc2)c(F)c1 (stereo not drawn) [Flurbiprofen] | – | A 4.01 | – | –
8 | Nc1ccc(S(=O)(=O)Nc2nccs2)cc1 [Sulfathiazole] | B 2.124 A | 7.168 | 0.07 | –
9 | CCN(CC)CCNC(=O)c1cc(Cl)c(N)cc1OC [Metoclopramide] | B 9.24 | – | – | –
10 | CN(C)CCCN1c2ccccc2CCc2ccccc21 [Imipramine] | B 9.54 | – | – | –
11 | CC(C)(C)NCC(O)COc1cccc2c1CC(O)C(O)C2 (stereo not drawn) [Nadolol] | B 9.696 | – | – | –
12 | Clc1ccc(COC(Cn2ccnc2)c2ccc(Cl)cc2Cl)c(Cl)c1 (stereo not drawn) [Miconazole] | B 6.316 | – | – | –
13 | O=C(O)c1ccc2ccccc2c1 [2-naphthoic acid] | – | A 3.884 | 3.28 | –
14 | Cc1ccccc1C(OCCN(C)C)c1ccccc1 (stereo not drawn) [Orphenadrine] | B 9.037 | – | 3.84 | –
15 | NS(=O)(=O)c1cc2c(cc1C(F)(F)F)NC(Cc1ccccc1)NS2(=O)=O (stereo not drawn) [Bendroflumethiazide] | – | – | 1.95 | –
16 | CCOC(=O)c1ccc(N)cc1 [Benzocaine] | B 2.39 | – | – | –
17 | Cc1ccnc(NS(=O)(=O)c2ccc(N)cc2)n1 [Sulfamerazine] | 2.22 | 6.81 | 0.15 | –
18 | Cc1cccc(Nc2ccccc2C(=O)O)c1C [Mefenamic Acid] | – | A 4.221 | – | –
19 | O=C(O)c1cc(/N=N/c2ccc(S(=O)(=O)Nc3ccccn3)cc2)ccc1O [Sulfasalazine] | – | – | 3.61 | –
20 | COc1ccc([C@@H]2Sc3ccccc3N(CCN(C)C)C(=O)[C@@H]2OC(C)=O)cc1 [Diltiazem] | – | – | 2.89 | –

Row | Compound | pKa(s) B = Base [1] | pKa(s) A = acid [1] | LogP [1] | other results
21 | CNCCCN1c2ccccc2CCc2ccccc21 [Desipramine] | B 10.08 | – | – | –
22 | NS(=O)(=O)c1cc2c(cc1Cl)NC(C(Cl)Cl)NS2(=O)=O (stereo not drawn) [Trichlormethiazide] | – | – | 0.97 | –
23 | CC1CCc2cc(F)cc3c(=O)c(C(=O)O)cn1c23 (stereo not drawn) [Flumequine] | – | A 6.37 | 1.72 | –
24 | CC(C(=O)O)c1ccc2c(c1)[nH]c1ccc(Cl)cc12 (stereo not drawn) [Carprofen] | – | A 4.247 | 4.29 | –
25 | Nc1nc2ncc(CNc3ccc(C(=O)N[C@@H](CCC(=O)O)C(=O)O)cc3)nc2c(=O)[nH]1 [Folic Acid] | 2.33 | – | 0.2 | –
26 | CC(=O)Nc1ccc(O)cc1 [Paracetamol] | – | A 9.52 | – | –
27 | CC(C)(C)c1ccc(C(O)CCCN2CCC(C(O)(c3ccccc3)c3ccccc3)CC2)cc1 (stereo not drawn) [Terfenadine] | B 9.25 | – | 5.42 | –
28 | O=C(O)c1ccccc1Nc1cccc(C(F)(F)F)c1 [Flufenamic Acid] | – | A 3.968 | 5.56 | –
29 | CNCCC(Oc1ccc(C(F)(F)F)cc1)c1ccccc1 (stereo not drawn) [Fluoxetine] | B 10.09 | – | – | –
30 | NC(N)=Nc1nc(CSCCC(N)=NS(N)(=O)=O)cs1 [Famotidine] | 6.77 | 11.01 | −0.81 | –
31 | CN(C)CC/C=C1/c2ccccc2Sc2ccc(Cl)cc21 [Chlorprothixene] | B 9.52 | – | 5.48 | –
32 | NS(=O)(=O)c1cc2c(cc1Cl)N=C(CSCc1ccccc1)NS2(=O)=O [Benzthiazide] | – | – | 1.73 | –
33 | NC12CC3CC(CC(C3)C1)C2 [Amantadine] | B 10.48 | – | 2.41 | –
34 | Cc1ccc(Cl)c(Nc2ccccc2C(=O)O)c1Cl [Meclofenamic Acid] | – | A 4.10 | 5.9 | –
35 | O=C(O)c1cccnc1Nc1cccc(C(F)(F)F)c1 [Niflumic Acid] | 2.26 | – | 3.88 | –
36 | O=C(CCCN1CCC(O)(c2ccc(Cl)cc2)CC1)c1ccc(F)cc1 [Haloperidol] | B 8.42 | – | – | –
37 | CCN(CC)Cc1cc(Nc2ccnc3cc(Cl)ccc23)ccc1O [Amodiaquin] | – | A 11.49 | 4.2 | –
38 | CNc1cc2[nH]c(=O)n(-c3ccc(NC(=O)[N-]S(=O)(=O)c4ccc(Cl)s4)cc3)c(=O)c2cc1F.[K+] [potassium salt of formula (I)] | – | – | – | CMC ([2]; pH 6.0 phosphate buffer): 0.1 mg/mL; Surface tension at CMC ([2]; pH 6.0 phosphate buffer): 62 mN/m; maximum surface pressure change ([2]; pH6 phosphate buffer): 11 mN/m; CMC ([2]; pH 6.5 phosphate buffer): >1.7 mg/mL; Surface tension at CMC ([2]; pH 6.5 phosphate buffer): 68 mN/m; Surface Active ([2]; pH 6.5 phosphate buffer): Yes; CMC ([2]; pH 7.0 phosphate buffer): >2.7 mg/mL; Surface tension at CMC ([2]; pH 7.0 phosphate buffer): 65 mN/m; Surface Active ([2]; pH 7.0 phosphate buffer): Yes; CMC ([2]; pH 7.5 phosphate buffer): >4.0 mg/mL; Surface tension at CMC ([2]; pH 7.5 phosphate buffer): 63 mN/m; Surface Active ([2]; pH 7.5 phosphate buffer): Yes; CMC ([2]; pH 8.0 phosphate buffer): >3.5 mg/mL; Surface tension at CMC ([2]; pH 8.0 phosphate buffer): 63 mN/m; Surface Active ([2]; pH 8.0 phosphate buffer): Yes
39 | CNCCC=C1c2ccccc2CCc2ccccc21 [Nortriptyline] | B 10.21 | – | – | –
